Test results from paper PMC8704707 (Pharmaceuticals, 2021).
Converted amounts (≈) assume the structure as drawn. “And” between values parts separate entries of the source, which are not always exact repeats. Equal values may be shown once. Read-outs that look alike come from different tables or passages of the source.

What was measured:
[1] = system: four Gram-positive and four Gram-negative bacterial strains; assay: Antibacterial microdilution broth method, whole panel; assay type: cell-based; details: read-out: MIC, all bacterial strains tested
[2] = molecular target: AChE from electric eel (EeAChE) (Electrophorus electricus, UniProt O42275); assay: biochemical; assay type: biochemical
[3] = molecular target: BuChE from equine serum (EqBuChE) (Equus caballus, UniProt P81908); assay: biochemical
[4] = system: Trichophyton interdigitale ATCC 9533; assay: microbe, parasite or virus in culture; assay type: cell-based
[5] = system: Candida tropicalis ATCC 750; assay: microbe, parasite or virus in culture; assay type: cell-based
[6] = system: Candida albicans ATCC 24443; assay: microbe, parasite or virus in culture; assay type: cell-based
[7] = system: Candida parapsilosis ATCC 22019; assay: microbe, parasite or virus in culture; assay type: cell-based; details: Lodderomyces parapsilosis
[8] = system: Candida krusei ATCC 6258; assay: microbe, parasite or virus in culture; assay type: cell-based; details: Pichia kudriavzevii
[9] = system: eight human pathogenic fungi; assay: Antifungal microdilution broth method, whole panel; assay type: cell-based; details: not reported in Table 2, read-out: MIC, all fungal strains tested
[10] = system: Escherichia coli ATCC 25922; assay: Antibacterial microdilution broth method (EUCAST); assay type: cell-based
[11] = system: Enterococcus faecalis ATCC 29212; assay: Antibacterial microdilution broth method (EUCAST); assay type: cell-based
[12] = system: methicillin-resistant Staphylococcus aureus ATCC 43300; assay: Antibacterial microdilution broth method (EUCAST); assay type: cell-based; details: ATCC 43300 / MRSA
[13] = system: Staphylococcus epidermidis ATCC 12228; assay: Antibacterial microdilution broth method (EUCAST); assay type: cell-based
[14] = in vitro; details: human, HepG2 cells
[15] = system: Klebsiella pneumoniae ATCC 10031; details: for MIC KP 24 h: 24 h incubation; for MIC KP 48 h: 48 h incubation
[16] = system: Staphylococcus aureus ATCC 29213; assay: Antibacterial microdilution broth method (EUCAST); assay type: cell-based
[17] = system: HepG2 cells; assay: LDH release assay (CytoTox 96), membrane integrity; details: read-out: EC50 LDH release assay; HepG2, 24 h incubation
[18] = system: HepG2 cells; details: read-out: IC50 cytotoxicity towards HepG2 cell line; CellTiter 96, 24 h incubation
Protocol: (§1) Cytotoxicity of the tested compounds was measured using the standard hepatic cell line HepG2. The used CellTiter 96® assay is based on the reduction of tetrazolium dye (MTS) in living cells to formazan, which is then determined colorimetrically.

[19] = system: Acinetobacter baumannii ATCC 19606; assay: Antibacterial microdilution broth method (EUCAST); assay type: cell-based
[20] = system: Pseudomonas aeruginosa ATCC 27853; assay: Antibacterial microdilution broth method (EUCAST); assay type: cell-based
[21] = in vitro; details: human, HepG2 cells; remark: listed apart in the source
Protocol: as §1

[22] = mean ± SD, n = three independent experiments, BTCh 40 µM, read-out: IC50 BuChE
[23] = ATCC9533, 72 h, read-out: MIC TI 72 h
[24] = ATCC9533, 120 h, read-out: MIC TI 120 h
[25] = ATCC750, 24 h, read-out: MIC CT 24 h
[26] = ATCC750, 48 h, read-out: MIC CT 48 h
[27] = ATCC24443, 24 h, read-out: MIC CA 24 h
[28] = ATCC24443, 48 h, read-out: MIC CA 48 h
[29] = ATCC22019, 24 h, read-out: MIC CP 24 h
[30] = ATCC22019, 48 h, read-out: MIC CP 48 h
[31] = ATCC6258, 24 h, read-out: MIC CK 24 h
[32] = ATCC6258, 48 h, read-out: MIC CK 48 h
[33] = mean ± SD, n = three independent experiments, ATCh 40 µM, read-out: IC50 AChE
[34] = ATCC25922, 24 h, read-out: MIC EC 24 h
[35] = ATCC25922, 48 h, read-out: MIC EC 48 h
[36] = ATCC29212, 24 h, read-out: MIC EF 24 h
[37] = ATCC29212, 48 h, read-out: MIC EF 48 h
[38] = ATCC12228, 24 h, read-out: MIC SE 24 h
[39] = ATCC12228, 48 h, read-out: MIC SE 48 h
[40] = ATCC29213, 24 h, read-out: MIC SA 24 h
[41] = ATCC29213, 48 h, read-out: MIC SA 48 h
[42] = ATCC19606, 24 h, read-out: MIC ACI 24 h
[43] = ATCC19606, 48 h, read-out: MIC ACI 48 h
[44] = ATCC27853, 24 h, read-out: MIC PA 24 h
[45] = ATCC27853, 48 h, read-out: MIC PA 48 h

BuChE from equine serum (EqBuChE), sequence (P81908 whole entry): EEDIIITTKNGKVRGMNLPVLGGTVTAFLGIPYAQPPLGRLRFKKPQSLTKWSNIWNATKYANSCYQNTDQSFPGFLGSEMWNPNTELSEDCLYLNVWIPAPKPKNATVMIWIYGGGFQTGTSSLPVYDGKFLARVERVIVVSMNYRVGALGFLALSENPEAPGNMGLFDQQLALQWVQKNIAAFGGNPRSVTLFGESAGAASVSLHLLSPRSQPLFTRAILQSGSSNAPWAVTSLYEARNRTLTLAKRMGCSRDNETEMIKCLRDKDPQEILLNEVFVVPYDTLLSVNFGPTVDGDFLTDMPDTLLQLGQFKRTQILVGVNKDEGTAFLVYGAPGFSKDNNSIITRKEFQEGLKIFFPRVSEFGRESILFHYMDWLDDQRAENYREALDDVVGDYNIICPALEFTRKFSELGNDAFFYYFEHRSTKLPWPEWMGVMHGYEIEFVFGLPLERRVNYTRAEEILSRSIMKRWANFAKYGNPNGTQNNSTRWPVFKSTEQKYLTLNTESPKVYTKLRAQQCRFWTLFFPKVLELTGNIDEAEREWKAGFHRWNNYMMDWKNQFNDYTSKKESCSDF
AChE from electric eel (EeAChE), sequence (O42275 24-633): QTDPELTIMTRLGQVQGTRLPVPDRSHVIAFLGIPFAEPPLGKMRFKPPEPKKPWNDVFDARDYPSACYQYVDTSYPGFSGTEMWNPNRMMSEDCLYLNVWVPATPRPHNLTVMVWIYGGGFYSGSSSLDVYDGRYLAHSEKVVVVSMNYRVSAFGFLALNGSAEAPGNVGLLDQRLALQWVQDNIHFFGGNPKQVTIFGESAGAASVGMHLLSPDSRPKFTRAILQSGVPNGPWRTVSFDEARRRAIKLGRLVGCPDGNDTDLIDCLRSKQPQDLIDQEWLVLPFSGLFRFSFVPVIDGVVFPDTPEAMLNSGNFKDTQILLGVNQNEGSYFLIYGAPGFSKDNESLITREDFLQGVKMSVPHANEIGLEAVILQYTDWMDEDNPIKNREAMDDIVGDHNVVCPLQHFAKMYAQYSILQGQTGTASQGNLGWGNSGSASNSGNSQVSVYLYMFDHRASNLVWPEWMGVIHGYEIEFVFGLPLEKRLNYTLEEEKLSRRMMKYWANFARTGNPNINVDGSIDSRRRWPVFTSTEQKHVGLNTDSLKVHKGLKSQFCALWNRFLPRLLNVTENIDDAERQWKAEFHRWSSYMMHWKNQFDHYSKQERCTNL

| Structure (SMILES) | MIC [1] [µM] | Selectivity AChE/BuChE [2] | IC50 [3, 22] | IC50 [2, 33] [µM] | MIC [9] [µM] | MIC [10, 34] [µM] | MIC [10, 35] [µM] | MIC [11, 36] [µM] | MIC [11, 37] [µM] | MIC ([12]; 24 h, read-out: MIC MRSA 24 h) [µM] | MIC ([12]; 48 h, read-out: MIC MRSA 48 h) [µM] | MIC [13, 38] [µM] | MIC [13, 39] [µM] | MIC KP 24 h [15] [µM] | MIC KP 48 h [15] [µM] | MIC [16, 40] [µM] | MIC [16, 41] [µM] | MIC [19, 42] [µM] | MIC [19, 43] [µM] | MIC [20, 44] [µM] | also measured |
| --- | --- | --- | --- | --- | --- | --- | --- | --- | --- | --- | --- | --- | --- | --- | --- | --- | --- | --- | --- | --- | --- |
| [H]/N=C(\N)NN=Cc1ccc(Cl)cc1 [Compound 1d, (E)-2-(4-Chlorobenzylidene)hydrazine-1-carboximidamide] | ≥ 500 | 3.25 | < 20 µM and 13.9 µM |  |  |  |  |  |  |  |  |  |  |  |  |  |  |  |  |  | IC50 [2]: 45.2 ± 1.6 µM |
| N=C(N/N=C/c1cc(I)cc(I)c1O)N/N=C/c1cc(I)cc(I)c1O [Compound 2g, Bis[2-((E)-2-hydroxy-3,5-diiodobenzylidene)hydrazineyl]methaniminium chloride] | ≥ 500 |  |  |  |  |  |  |  |  |  |  |  |  |  |  |  |  |  |  |  | MIC [4, 23]: 250 µM; MIC [4, 24]: 250 µM; MIC [5, 25]: > 500 µM; MIC [5, 26]: > 500 µM; IC50 [2]: 54.9 ± 1.72 µM; MIC [6, 27]: > 500 µM; MIC [6, 28]: > 500 µM; MIC [7, 29]: > 500 µM; MIC [7, 30]: > 500 µM; MIC [8, 31]: > 500 µM; MIC [8, 32]: > 500 µM; IC50 ([3]; read-out: IC50 BuChE): 8.26 ± 0.21 µM |
| [H]/N=C(\NN=Cc1cc(I)cc(I)c1O)N[N+](=O)[O-] [Compound 2f, (E)-2-(2-Hydroxy-3,5-diiodobenzylidene)-N-nitrohydrazine-1-carboximidamide] | ≥ 500 |  | > 500 µM | 34.78 ± 0.04 | ≥ 500 |  |  |  |  |  |  |  |  |  |  |  |  |  |  |  |  |
| [H]/N=C(\N)NN=Cc1cccc(Cl)c1O [Compound 1e, (E)-2-(3-Chloro-2-hydroxybenzylidene)hydrazine-1-carboximidamide] | ≥ 500 |  | < 20 µM and 5.57 µM | 46.2 ± 2.26 |  |  |  |  |  |  |  |  |  |  |  |  |  |  |  |  |  |
| NC(=S)N/N=C/c1ccc([N+](=O)[O-])o1 [Compound 3e, (E)-2-[(5-Nitrofuran-2-yl)methylene]hydrazine-1-carbothioamide] |  | <0.07 | > 500 µM | 33.16 ± 0.06 |  | 125 (≈ 26.8 µg/mL) | 250 (≈ 53.6 µg/mL) | 125 (≈ 26.8 µg/mL) | 125 (≈ 26.8 µg/mL) | 62.5 (≈ 13.4 µg/mL) | 62.5 (≈ 13.4 µg/mL) | 31.2 (≈ 6.69 µg/mL) | 62.5 (≈ 13.4 µg/mL) | 62.5 (≈ 13.4 µg/mL) | 62.5 (≈ 13.4 µg/mL) | 62.5 (≈ 13.4 µg/mL) | 62.5 (≈ 13.4 µg/mL) | > 500 | > 500 | > 500 | EC50 at 24 h [14]: < 6 µM; EC50 [17]: 5.25 µM; IC50 [18]: 29.8 µM; MIC [20, 45]: > 500 µM; IC50 at 24 h [21]: > 29 µM |
| [H]/N=C(\N)NN=Cc1ccccc1 [Compound 1a, (E)-2-Benzylidenehydrazine-1-carboximidamide] |  | 0.81 |  |  | ≥ 500 | > 500 | > 500 | > 500 | > 500 | > 500 | > 500 | 250 (≈ 40.5 µg/mL) | 250 (≈ 40.5 µg/mL) | >500 | >500 | 500 (≈ 81.1 µg/mL) | 500 (≈ 81.1 µg/mL) | > 500 | > 500 | > 500 | IC50 [2]: 36.19 ± 0.1 µM; IC50 ([3]; IC50 BuChE): 44.9 ± 0.54 µM; MIC [20, 45]: > 500 µM |
| [H]/N=C(\N)NN=Cc1cc(I)c(O)c(I)c1 [Compound 2b, (E)-2-(4-Hydroxy-3,5-diiodobenzylidene)hydrazine-1-carboximidamide] |  | 0.87 | 46.28 ± 0.29 µM | 40.3 ± 0.85 | ≥ 500 | 500 (≈ 215 µg/mL) | 500 (≈ 215 µg/mL) | 500 (≈ 215 µg/mL) | 500 (≈ 215 µg/mL) | 500 (≈ 215 µg/mL) | 500 (≈ 215 µg/mL) | 250 (≈ 107 µg/mL) | 500 (≈ 215 µg/mL) | 250 (≈ 107 µg/mL) | 250 (≈ 107 µg/mL) | 500 (≈ 215 µg/mL) | 500 (≈ 215 µg/mL) | > 500 | > 500 | > 500 | MIC [20, 45]: > 500 µM |
| NC(=S)N/N=C/c1cc(I)cc(I)c1O [Compound 2i, (E)-2-(2-Hydroxy-3,5-diiodobenzylidene)hydrazine-1-carbothioamide] |  | 0.61 | 86.24 ± 0.39 µM | 52.22 ± 0.4 | ≥ 500 | > 500 | > 500 | 250 (≈ 112 µg/mL) | 250 (≈ 112 µg/mL) | 500 (≈ 224 µg/mL) | 500 (≈ 224 µg/mL) | 250 (≈ 112 µg/mL) | 250 (≈ 112 µg/mL) | >500 | >500 | 500 (≈ 224 µg/mL) | 500 (≈ 224 µg/mL) | > 500 | > 500 | > 500 | MIC [20, 45]: > 500 µM |
| [H]/N=C(\N)NN=Cc1cc(Cl)cc(Cl)c1O [Compound 1j, (E)-2-(3,5-Dichloro-2-hydroxybenzylidene)hydrazine-1-carboximidamide] |  | 0.66 | 61.7 ± 4.33 µM | 40.8 ± 0.8 | ≥ 500 | 500 (≈ 124 µg/mL) | 500 (≈ 124 µg/mL) | 250 (≈ 61.8 µg/mL) | 250 (≈ 61.8 µg/mL) | 250 (≈ 61.8 µg/mL) | 250 (≈ 61.8 µg/mL) | 250 (≈ 61.8 µg/mL) | 250 (≈ 61.8 µg/mL) | 500 (≈ 124 µg/mL) | 500 (≈ 124 µg/mL) | 250 (≈ 61.8 µg/mL) | 250 (≈ 61.8 µg/mL) | 500 (≈ 124 µg/mL) | 500 (≈ 124 µg/mL) | 250 (≈ 61.8 µg/mL) | MIC [20, 45]: 250 µM (≈ 61.8 µg/mL) |
| N=C(N)NNCc1cc(I)cc(I)c1O [Compound 2d, 2-(2-Hydroxy-3,5-diiodobenzyl)hydrazine-1-carboximidamide] | ≥ 500 | 1.10 | 41.5 ± 1.45 µM | 45.7 ± 1.7 |  |  |  |  |  |  |  |  |  |  |  |  |  |  |  |  | MIC [4, 23]: 62.5 µM (≈ 27 µg/mL); MIC [4, 24]: 62.5 µM (≈ 27 µg/mL); MIC [5, 25]: > 125 µM; MIC [5, 26]: > 125 µM; MIC [6, 27]: > 125 µM; MIC [6, 28]: > 125 µM; MIC [7, 29]: > 125 µM; MIC [7, 30]: > 125 µM; MIC [8, 31]: > 125 µM; MIC [8, 32]: > 125 µM |
